Data: US9468624B2, “Small molecule antagonists of bacterial quorum-sensing receptors” (priority 2008, dated 2016)

Tests used:
[1] = system: C. violaceum killing of C. elegans; assay: C. elegans life span assay following C. violaceum infection; format: in vivo, Caenorhabditis elegans; conditions: wild type C. violaceum, CL 20 μM; untreated two days
Experimental: Life Span Assays. C. elegans lifespan assays were completed with at least 100 wild type N2 worms for each condition. C. elegans eggs were harvested from a large population of gravid adults using a standard bleaching protocol (30 mL 5% bleach, 15 mL N KOH, 55 mL DH2O). Harvested eggs were placed on lawns of fresh E. coli OP50 and allowed to hatch and grow to the young adult (L4) stage before being moved onto lawns of C. violaceum. Worms were scored for survival each day and transferred to new C. violaceum lawns every two days until all worms had expired.
In the presence of the mutant strain, the median C. elegans lifespan is twelve days (FIG. 7A; DMSO control). Exogenous addition of the native autoinducer molecule, C6-HSL restored quorum sensing and complemented the cviI mutant's ability to kill C. elegans (median lifespan=4 days, FIG. 7A).

LuxN = target: T1, LuxN (Vibrio campbellii, UniProt A7MRY4); assay: V. harveyi bioluminescence dose-response; format: cell-based, Vibrio harveyi; conditions: IC50 for inhibition of bioluminescence
T1 construct: Light production from wild type V. harveyi (BB120), a luxPQ mutant (BB960), and a luxPQ, luxS double mutant (JMH624) was measured; endogenous in cells; host or cells: V. harveyi BB120, BB960 (luxQ::Tn5), JMH624 (ΔluxM, luxQ::Tn5)
T1 sequence (A7MRY4 whole entry): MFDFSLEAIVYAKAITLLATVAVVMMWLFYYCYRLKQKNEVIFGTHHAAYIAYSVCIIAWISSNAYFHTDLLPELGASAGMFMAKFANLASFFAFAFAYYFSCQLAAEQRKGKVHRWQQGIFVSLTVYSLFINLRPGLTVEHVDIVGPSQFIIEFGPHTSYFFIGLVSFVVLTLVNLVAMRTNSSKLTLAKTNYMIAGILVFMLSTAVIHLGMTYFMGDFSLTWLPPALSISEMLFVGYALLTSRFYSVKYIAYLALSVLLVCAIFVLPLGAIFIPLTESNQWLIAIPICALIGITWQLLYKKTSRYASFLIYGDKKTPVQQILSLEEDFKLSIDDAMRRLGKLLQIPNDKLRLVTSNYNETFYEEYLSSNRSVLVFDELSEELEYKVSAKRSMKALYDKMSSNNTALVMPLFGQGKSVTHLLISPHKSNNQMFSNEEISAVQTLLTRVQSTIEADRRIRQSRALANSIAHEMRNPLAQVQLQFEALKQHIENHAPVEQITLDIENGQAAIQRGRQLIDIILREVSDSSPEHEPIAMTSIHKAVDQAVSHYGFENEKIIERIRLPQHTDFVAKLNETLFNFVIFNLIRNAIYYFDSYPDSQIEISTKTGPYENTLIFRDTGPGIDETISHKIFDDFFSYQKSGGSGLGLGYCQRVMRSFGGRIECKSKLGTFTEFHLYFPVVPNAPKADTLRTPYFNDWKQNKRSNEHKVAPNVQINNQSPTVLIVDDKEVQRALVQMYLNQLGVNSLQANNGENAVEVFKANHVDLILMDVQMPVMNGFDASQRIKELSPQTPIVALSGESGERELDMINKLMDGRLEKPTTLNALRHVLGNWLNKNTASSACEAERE
Experimental: Wild type C. violaceum strain ATCC31532 was purchased from the ATCC. The cviI mutant strain, CV026 was kindly supplied by Clay Fuqua and Paul Williams. C. violaceum strains were grown aerobically at 30° C. in either Luria-Bertani broth or Nutrient Broth supplemented with 1 mM trypotophan. V. harveyi strains were grown aerobically at 30° C. in autoinducer bioassay (AB) broth. AI-1 dose-response curves were generated in V. harveyi strains BB120, BB960 and JMH624 as described. E. coli was grown at 37° C. in Luria Bertani broth. The plasmid pET23b (Novagen) was used for expressing cviR in E. coli strain BL21-Gold (DE3) or BL21(DE3) pLysS (Stratagene) and maintained by inclusion of Ampicillin at 100 μg/ml. Plasmid pEVS141 was used for the vioA-gfp promoter fusion and maintained with 50 μg/ml of Kanamycin. C. elegans wild type strain, N2 was used for all of the nematode infection studies. Worms were propagated on Nematode Growth Media (NGM) medium with an E. coli OP50 lawn as the food source and allowed to multiply at 20° C.
To determine the properties of CTL and CL in relation to the LuxN receptor, the in vivo activity was examined of 4606-4237, CTL, and CL for V. harveyi LuxN using dose response analyses of the endogenous quorum-sensing-activated target, bioluminescence. Three different V harveyi strains were examined (1) The wild type V. harveyi strain BB120 which has multiple quorum-sensing circuits, and thus responds to multiple autoinducers, only one of which is the AHL acting through LuxN. (2) V. harveyi BB960 which lacks the receptor for the second autoinducer making the AHL-LuxN circuit the dominant input into bioluminescence expression. (3) V. harveyi JMH624 which, in addition to lacking the receptor for the second autoinducer lacks the AHL synthase LuxM. Thus, V. harveyi JMH624 induces bioluminescence exclusively in response to the AHL, 3OH-C4-HSL signal but only when it is supplied exogenously. Exogenous addition of 20 nM 3OH-C4-HSL is sufficient to induce maximal bioluminescence in all of these strains.

[2] = V. harveyi JMH624 + 20 nM 3OH-C4-HSL

Row | Structure (SMILES) | C. elegans lifespan [1] | IC50 (LuxN; V. harveyi BB960) [µM] | IC50 (LuxN; [2]) [µM] | IC50 (LuxN; wild type V. harveyi BB120) [µM]
1 | O=C(CCCOc1ccc(Cl)cc1)NC1CCOC1=O (stereo not shown) [CL, chlorolactone] | seven | 14 | 0.873 | 40
2 | O=C(CCCOc1ccc(Cl)cc1)NC1CCSC1=O (stereo not shown) [CTL, Chloro-thiolactone] | – | 28 | 6 | 150
